Source: patent US11529317B2, “Method of preparing silica nanocapsules and silica nanocapsules” (Agency for Science, Technology and Research, priority 2017, dated 2022)

Assay: Timed release of glycerol in aqueous media, standard enzymatic assay
Assay type: physicochemical
Conditions: control
Protocol: In this example, timed release studies were conducted on the glycerol loaded silica nanocapsules in accordance with various embodiments disclosed herein. Firstly, the synthesized silica nano lens particles were loaded with glycerol. Then, they were suspended in aqueous media and compared with controls.
The percentage of glycerol released from the lens-shaped particles over a period of 80 minutes is estimated using standard enzymatic assay and the results are shown in FIG. 12. […] On the other hand, encapsulated glycerol is released gradually from the lens-shaped particles over a period of approximately two hours.

SMILES: OCC(O)CO [unencapsulated glycerol, glycerol]
- dissolution of glycerol in water: instantly dissolves
